In PubChem BioAssay AID248 (DTP/NCI, 2004):
Values joined by “and” are separate entries in the source; they are usually repeats but may differ in a detail not shown here. Equal entries are not always repeated. Toxic doses and inconclusive results are not listed. Rule as the data show it: active = T/C of 150% or more; inactive = T/C below 125%.

Tested on: L1210 leukemia ip in BDF1 mice, survival T/C
Assay: NCI In Vivo Anticancer Drug Screen. Data for tumor model L1210 Leukemia (intraperitoneal) in B6D2F1 (BDF1) mice
Conditions: endpoint: mean survival time, higher = longer survival
Outline: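 Ratio derived from survival: compound-dosed mice over vehicle-dosed mice, all bearing a transplantable tumor.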

[1] = dose: 100.0 mg/kg/injection, schedule: Q04DX002 (ip), vehicle: Klucel (hydroxypropylcellulose) (HPC)
[2] = dose: 200.0 mg/kg/injection, schedule: Q04DX002 (ip), vehicle: Klucel (hydroxypropylcellulose) (HPC)
[3] = dose: 400.0 mg/kg/injection, schedule: Q04DX002 (ip), vehicle: Klucel (hydroxypropylcellulose) (HPC)
[4] = dose: 100.0 mg/kg/injection, schedule: Q01DX009 (ip), vehicle: saline with Tween-80
[5] = dose: 200.0 mg/kg/injection, schedule: Q01DX009 (ip), vehicle: saline with Tween-80
[6] = dose: 100.0 mg/kg/injection, schedule: Q01DX001 (ip), vehicle: carboxymethylcellulose (CMC)
[7] = dose: 200.0 mg/kg/injection, schedule: Q01DX001 (ip), vehicle: carboxymethylcellulose (CMC)
[8] = dose: 400.0 mg/kg/injection, schedule: Q01DX001 (ip), vehicle: carboxymethylcellulose (CMC)

Measured: T/C

CC(CC(O)c1ccccc1)c1ccccc1 (centres undefined)
inactive: dose: 100.0 mg/kg/injection, schedule: Q01DX009 (ip), vehicle: saline 102 % of control | dose: 100.0 mg/kg/injection, schedule: Q04DX003 (ip), vehicle: Klucel (hydroxypropylcellulose) (HPC) 98 % of control | dose: 200.0 mg/kg/injection, schedule: Q01DX009 (ip), vehicle: saline 97 % of control | dose: 200.0 mg/kg/injection, schedule: Q04DX003 (ip), vehicle: Klucel (hydroxypropylcellulose) (HPC) 104 % of control | dose: 400.0 mg/kg/injection, schedule: Q01DX009 (ip), vehicle: saline 98 % of control | dose: 400.0 mg/kg/injection, schedule: Q04DX003 (ip), vehicle: Klucel (hydroxypropylcellulose) (HPC) 104 % of control

COc1ccc(NC(=O)NCc2cccc(Cl)c2)cc1
inactive: dose: 50.0 mg/kg/injection, schedule: Q04DX002 (ip), vehicle: Klucel (hydroxypropylcellulose) (HPC) 100 % of control | [1] 103 % of control and 107 % of control | [2] 98 % of control | [3] 110 % of control and 92 % of control

COC(=O)c1cc([N+](=O)[O-])c(C)s1
inactive: dose: 100.0 mg/kg/injection, schedule: Q01DX001 (ip), vehicle: saline 100 % of control | dose: 200.0 mg/kg/injection, schedule: Q01DX001 (ip), vehicle: saline 100 % of control | dose: 400.0 mg/kg/injection, schedule: Q01DX001 (ip), vehicle: saline 96 % of control

NC(=S)c1cccc(S(=O)(=O)Nc2ccccc2)c1
inactive: dose: 100.0 mg/kg/injection, schedule: Q01DX001 (ip), vehicle: Klucel (hydroxypropylcellulose) (HPC) 103 % of control | dose: 200.0 mg/kg/injection, schedule: Q01DX001 (ip), vehicle: Klucel (hydroxypropylcellulose) (HPC) 105 % of control | dose: 400.0 mg/kg/injection, schedule: Q01DX001 (ip), vehicle: Klucel (hydroxypropylcellulose) (HPC) 101 % of control

CC1(C)N=C(N)N=C(N)N1c1cccc(Oc2ccc(N)cc2)c1
inactive: dose: 25.0 mg/kg/injection, schedule: Q04DX003 (ip), vehicle: Klucel (hydroxypropylcellulose) (HPC) 103 % of control | dose: 50.0 mg/kg/injection, schedule: Q04DX003 (ip), vehicle: Klucel (hydroxypropylcellulose) (HPC) 110 % of control

CC1CCN1Cc1ccccc1 (centres undefined)
inactive: dose: 12.5 mg/kg/injection, schedule: Q04DX003 (ip), vehicle: acetone 98 % of control | dose: 25.0 mg/kg/injection, schedule: Q04DX003 (ip), vehicle: acetone 104 % of control | dose: 50.0 mg/kg/injection, schedule: Q04DX003 (ip), vehicle: acetone 104 % of control | dose: 75.0 mg/kg/injection, schedule: Q01DX009 (ip), vehicle: saline 94 % of control

O=c1n(-c2ccccc2)c(=O)n2n1C1/C=C\C=C/C2C2CCC21 (centres undefined)
inactive: dose: 12.5 mg/kg/injection, schedule: Q01DX009 (ip), vehicle: saline with Tween-80 92 % of control | dose: 12.5 mg/kg/injection, schedule: Q04DX003 (ip), vehicle: saline with Tween-80 100 % of control | dose: 25.0 mg/kg/injection, schedule: Q01DX009 (ip), vehicle: saline with Tween-80 95 % of control | dose: 25.0 mg/kg/injection, schedule: Q04DX003 (ip), vehicle: saline with Tween-80 95 % of control | dose: 50.0 mg/kg/injection, schedule: Q04DX003 (ip), vehicle: saline with Tween-80 87 % of control

NNC(=O)CCCCCO
inactive: [4] 102 % of control | [5] 100 % of control | dose: 400.0 mg/kg/injection, schedule: Q01DX009 (ip), vehicle: saline with Tween-80 100 % of control

CCN(CCO)Cc1cccc2ccccc12
inactive: dose: 25.0 mg/kg/injection, schedule: Q04DX003 (ip), vehicle: saline 97 % of control | dose: 50.0 mg/kg/injection, schedule: Q04DX003 (ip), vehicle: saline 101 % of control | dose: 100.0 mg/kg/injection, schedule: Q04DX003 (ip), vehicle: saline with Tween-80 98 % of control | dose: 100.0 mg/kg/injection, schedule: Q04DX003 (ip), vehicle: saline 101 % of control

O=P(c1ccc[nH]1)(c1ccc[nH]1)c1ccc[nH]1
inactive: dose: 100.0 mg/kg/injection, schedule: Q04DX002 (ip), vehicle: gum acacia 101 % of control | dose: 200.0 mg/kg/injection, schedule: Q04DX002 (ip), vehicle: gum acacia 93 % of control | dose: 400.0 mg/kg/injection, schedule: Q04DX002 (ip), vehicle: gum acacia 108 % of control

COC(=N)c1ccc(Cl)cc1
inactive: [4] 88 % of control | [5] 93 % of control

CC(=O)OC1CCC2(C)C(=CCC3C2CCC2(C)C3CC3C(c4ccccc4F)=NN(c4ccccc4)C32C#N)C1 (centres undefined)
inactive: [1] 106 % of control | [2] 95 % of control | [3] 95 % of control

CC(C)(COC(=O)COc1ccc(Cl)cc1Cl)[N+](=O)[O-]
inactive: dose: 100.0 mg/kg/injection, schedule: Q01DX009 (ip), vehicle: Klucel (hydroxypropylcellulose) (HPC) 97 % of control | dose: 200.0 mg/kg/injection, schedule: Q01DX009 (ip), vehicle: Klucel (hydroxypropylcellulose) (HPC) 92 % of control

CCCC[CH2][Sn]([CH2]CCCC)[CH2]CCCC.CCCC[CH2][Sn]([CH2]CCCC)[CH2]CCCC
inactive: dose: 100.0 mg/kg/injection, schedule: Q04DX002 (sc), vehicle: olive oil, sesame oil, peanut oil 115 % of control | dose: 200.0 mg/kg/injection, schedule: Q04DX002 (sc), vehicle: olive oil, sesame oil, peanut oil 99 % of control | dose: 400.0 mg/kg/injection, schedule: Q04DX002 (sc), vehicle: olive oil, sesame oil, peanut oil 105 % of control

CCSc1ccc2c(cc1=O)C(N)CCc1cc(OC)c(OC)c(OC)c1-2 (centres undefined)
inactive: dose: 12.5 mg/kg/injection, schedule: Q04DX002 (ip), vehicle: saline 107 % of control | dose: 25.0 mg/kg/injection, schedule: Q04DX002 (ip), vehicle: saline 95 % of control | dose: 50.0 mg/kg/injection, schedule: Q04DX002 (ip), vehicle: saline 98 % of control

COC(C(=O)O)c1ccc(Cl)cc1 (centres undefined)
inactive: dose: 100.0 mg/kg/injection, schedule: Q04DX002 (ip), vehicle: saline with Tween-80 98 % of control | dose: 200.0 mg/kg/injection, schedule: Q04DX002 (ip), vehicle: saline with Tween-80 91 % of control | dose: 400.0 mg/kg/injection, schedule: Q04DX002 (ip), vehicle: saline with Tween-80 91 % of control

O=C(NO)c1ccc(F)cc1
inactive: [6] 103 % of control | [7] 97 % of control | [8] 92 % of control

O=C(OCC(O)C(O)C(O)C(COC(=O)c1ccccc1)OC(=O)c1ccccc1)c1ccccc1 (centres undefined)
inactive: dose: 87.5 mg/kg/injection, schedule: Q01DX009 (ip), vehicle: carboxymethylcellulose (CMC) 87 % of control | [6] 98 % of control | dose: 175.0 mg/kg/injection, schedule: Q01DX009 (ip), vehicle: carboxymethylcellulose (CMC) 90 % of control | [7] 96 % of control | dose: 350.0 mg/kg/injection, schedule: Q01DX009 (ip), vehicle: carboxymethylcellulose (CMC) 87 % of control | [8] 93 % of control

CCN(CC)C(=O)CSC#N
inactive: dose: 6.25 mg/kg/injection, schedule: Q04DX002 (ip), vehicle: other 88 % of control | dose: 12.5 mg/kg/injection, schedule: Q04DX002 (ip), vehicle: other 103 % of control
